{"source": "patent US7820651B2", "about": "“Preparation of antimicrobial formulations using 7-oxa-2-thia-1,5-diazabicyclo[3.3.1]nonane-2,2-dione” (priority 2006, dated 2010)", "key": {"[1]": {"assay": "Exploratory experiments for dissolving in water (solubility)", "format": "physicochemical", "details": "in 100 ml of water at room temperature"}, "A. niger (ATCC 16404)": {"system": "A. niger (ATCC 16404)", "assay": "Fungicidal activity according to DIN EN 1275 (membrane filtration), microbial count reduction", "format": "cell-based", "details": "20°±1° C., pH 6.3", "method": "(§1) With regard to a possible use as lock solution, a solution was prepared, for testing for antimicrobial activity, by dissolving 0.85 g of cyclotaurolidine and 4.8 g of monosodium citrate in water (100 ml) with stirring, a clear colorless solution being obtained. After the pH of the solution had been adjusted to 6.3, the solution was filtered and filled into ampoules. The bactericidal and fungicidal activity of the solution was tested by a recognized test laboratory according to DIN EN 1040 and DIN EN 1275 (membrane filtration) against the test organisms S. aureus (ATCC 6538), P. aeruginosa (ATCC 15442), S. epidermis (ATCC 12288), C. albicans (ATCC 10231) and A. niger (ATCC 16404). The microbial count reductions observed for an action time of the test solution of 60 min and of 24 h at a test temperature of 20°±1° C. were determined. The results are given in log steps of the microbial count reduction, minimum reductions of ≧5.0 log steps being required with respect to the test microorganisms S. aureus, P. aeruginosa and S. epidermis and log steps of ≧4.0 for C. albicans and A. niger, based on DIN EN 1040 and DIN EN 1275."}, "C. albicans (ATCC 10231)": {"system": "C. albicans (ATCC 10231)", "assay": "Fungicidal activity according to DIN EN 1275 (membrane filtration), microbial count reduction", "format": "cell-based", "details": "20°±1° C., pH 6.3", "method": "as §1"}, "[2]": {"format": "physicochemical", "source_text": "In contrast to taurolidin, cyclotaurolidine can therefore also be processed to give formulations in organic vehicles, for example in many customary organic vehicle materials for pharmaceutical and cosmetic purposes. This permits, for example, advantageous use in ointments and gels and on plastic surfaces (in the surface layers of stents), for example in agents for disinfecting the skin surface or as a fungicide, for example for the feet."}, "[3]": {"system": "P. aeruginosa (ATCC 15442)", "assay": "Bactericidal activity according to DIN EN 1040 (membrane filtration), microbial count reduction", "format": "cell-based", "details": "20°±1° C., pH 6.3", "method": "as §1"}, "[4]": {"system": "S. epidermis (ATCC 12288)", "assay": "Bactericidal activity according to DIN EN 1040 (membrane filtration), microbial count reduction", "format": "cell-based", "details": "20°±1° C., pH 6.3", "method": "as §1"}, "S. aureus (ATCC 6538)": {"system": "S. aureus (ATCC 6538)", "assay": "Bactericidal activity according to DIN EN 1040 (membrane filtration), microbial count reduction", "format": "cell-based", "details": "20°±1° C., pH 6.3", "method": "as §1"}, "[5]": {"details": "action time 60 min, 0.85 g cyclotaurolidine and 4.8 g monosodium citrate in 100 ml water"}, "[6]": {"details": "action time 24 h, 0.85 g cyclotaurolidine and 4.8 g monosodium citrate in 100 ml water"}, "[7]": {"details": "action time 60 min, comparative aqueous solution, 2% by weight of taurolidin with citrate"}, "[8]": {"details": "action time 24 h, comparative aqueous solution, 2% by weight of taurolidin with citrate"}}}
{"smiles": "O=S1(=O)CCN2COCN1C2", "note": "[cyclotaurolidine, 7-oxa-2-thia-1,5-diazabicyclo[3.3.1]nonane-2,2-dione]", "values": [{"measurement": "solubility", "setting": "[1]", "result": "≤ 13", "unit": "mg/mL"}, {"measurement": "microbial count reduction", "setting": "A. niger (ATCC 16404); [5]", "result": "> 4.08", "unit": "log steps"}, {"measurement": "microbial count reduction", "setting": "A. niger (ATCC 16404); [6]", "result": "> 4.08", "unit": "log steps"}, {"measurement": "microbial count reduction", "setting": "C. albicans (ATCC 10231); [5]", "result": "> 4.26", "unit": "log steps"}, {"measurement": "microbial count reduction", "setting": "C. albicans (ATCC 10231); [6]", "result": "> 4.26", "unit": "log steps"}, {"measurement": "solubility in organic solvents", "setting": "[2]", "result": "soluble in various organic solvents"}, {"measurement": "stability in the air", "setting": "[2]", "result": "stable in the air at customary temperatures"}, {"measurement": "microbial count reduction", "setting": "[3]; [5]", "result": "> 5.27", "unit": "log steps"}, {"measurement": "microbial count reduction", "setting": "[3]; [6]", "result": "> 5.27", "unit": "log steps"}, {"measurement": "microbial count reduction", "setting": "[4]; [5]", "result": 1.22, "unit": "log steps"}, {"measurement": "microbial count reduction", "setting": "[4]; [6]", "result": "> 5.29", "unit": "log steps"}, {"measurement": "microbial count reduction", "setting": "S. aureus (ATCC 6538); [5]", "result": 2.04, "unit": "log steps"}, {"measurement": "microbial count reduction", "setting": "S. aureus (ATCC 6538); [6]", "result": "> 5.25", "unit": "log steps"}]}
{"smiles": "O=S1(=O)CCN(CN2CCS(=O)(=O)NC2)CN1", "note": "[taurolidin, reference compound]", "values": [{"measurement": "microbial count reduction", "setting": "A. niger (ATCC 16404); [7]", "result": 1.18, "unit": "log steps"}, {"measurement": "microbial count reduction", "setting": "A. niger (ATCC 16404); [8]", "result": "≥ 4.08", "unit": "log steps"}, {"measurement": "microbial count reduction", "setting": "C. albicans (ATCC 10231); [7]", "result": 0, "unit": "log steps"}, {"measurement": "microbial count reduction", "setting": "C. albicans (ATCC 10231); [8]", "result": 3.70, "unit": "log steps"}, {"measurement": "microbial count reduction", "setting": "[3]; [7]", "result": "> 5.27", "unit": "log steps"}, {"measurement": "microbial count reduction", "setting": "[3]; [8]", "result": "≥ 5.27", "unit": "log steps"}, {"measurement": "microbial count reduction", "setting": "[4]; [7]", "result": "> 0.99", "unit": "log steps"}, {"measurement": "microbial count reduction", "setting": "[4]; [8]", "result": "≥ 5.29", "unit": "log steps"}, {"measurement": "microbial count reduction", "setting": "S. aureus (ATCC 6538); [7]", "result": 1.33, "unit": "log steps"}, {"measurement": "microbial count reduction", "setting": "S. aureus (ATCC 6538); [8]", "result": "≥ 5.25", "unit": "log steps"}]}
